Experimental data as given in article PMC12637020, “Synthesis and biological evaluation of novel hydrazone derivatives for the treatment of Alzheimer's disease” (RSC Advances, 2025).

Key:
BChE enzyme = BChE enzyme (Homo sapiens, UniProt P06276); assay: biochemical; details: for inhibition at 1000 µM: read-out: BChE% inhibition 10^−3 M; for inhibition at 100 µM: read-out: BChE% inhibition 10^−4 M
Source text: (§1) The assay was completed in two steps.
(§2) The potential inhibitory effects of the obtained molecules on the AChE and BChE enzymes was examined using a variation of the Ellman method.[31,33,41–43] Distilled water from the Millipore/Milli-Q purification apparatus was utilized at every stage of the biological activity investigations during the evaluation process. In less than a week, all the solutions required for the biological investigation were meticulously prepared from scratch. A “BioTek-Precision Power (United States)” robotic pipetting system was utilized to distribute the prepared solutions and apply the test compounds and enzyme–substrate solutions to 96-well plates. The “BioTek-Synergy H1 Microplate Reader (United States)” was employed to establish and follow the enzyme protocol for spectrophotometric measurements. Solutions of the compounds were prepared at two different concentrations, 10^−3 M and 10^−4 M, using dimethylsulfoxide (DMSO) as 2% solution, and these were used in biological activity studies.

AChE enzyme = AChE enzyme (Homo sapiens, UniProt P22303); assay: biochemical; format: biochemical; details: for inhibition at 1000 µM: read-out: AChE% inhibition 10^−3 M; for inhibition at 100 µM: read-out: AChE% inhibition 10^−4 M; for IC50: tested at 10 to 0.001 µM
AChE enzyme, sequence (P22303 32-614): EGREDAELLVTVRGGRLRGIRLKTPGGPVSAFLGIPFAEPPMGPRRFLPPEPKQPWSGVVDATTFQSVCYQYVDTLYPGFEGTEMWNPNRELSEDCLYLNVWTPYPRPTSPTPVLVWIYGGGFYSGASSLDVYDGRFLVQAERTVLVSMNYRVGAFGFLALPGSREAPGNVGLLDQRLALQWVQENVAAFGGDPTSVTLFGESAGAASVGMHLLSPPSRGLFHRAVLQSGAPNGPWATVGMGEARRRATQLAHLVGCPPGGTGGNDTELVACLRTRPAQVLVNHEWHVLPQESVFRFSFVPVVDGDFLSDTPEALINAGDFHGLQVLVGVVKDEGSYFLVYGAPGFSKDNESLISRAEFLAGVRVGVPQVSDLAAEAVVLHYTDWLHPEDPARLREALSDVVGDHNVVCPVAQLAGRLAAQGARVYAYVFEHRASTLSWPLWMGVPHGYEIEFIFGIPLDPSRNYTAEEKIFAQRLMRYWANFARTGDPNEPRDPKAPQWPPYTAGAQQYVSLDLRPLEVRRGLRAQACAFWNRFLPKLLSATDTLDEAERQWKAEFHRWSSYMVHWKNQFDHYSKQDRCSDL
Source text: as §1, §2

BChE enzyme, sequence (P06276 29-602, species assumed): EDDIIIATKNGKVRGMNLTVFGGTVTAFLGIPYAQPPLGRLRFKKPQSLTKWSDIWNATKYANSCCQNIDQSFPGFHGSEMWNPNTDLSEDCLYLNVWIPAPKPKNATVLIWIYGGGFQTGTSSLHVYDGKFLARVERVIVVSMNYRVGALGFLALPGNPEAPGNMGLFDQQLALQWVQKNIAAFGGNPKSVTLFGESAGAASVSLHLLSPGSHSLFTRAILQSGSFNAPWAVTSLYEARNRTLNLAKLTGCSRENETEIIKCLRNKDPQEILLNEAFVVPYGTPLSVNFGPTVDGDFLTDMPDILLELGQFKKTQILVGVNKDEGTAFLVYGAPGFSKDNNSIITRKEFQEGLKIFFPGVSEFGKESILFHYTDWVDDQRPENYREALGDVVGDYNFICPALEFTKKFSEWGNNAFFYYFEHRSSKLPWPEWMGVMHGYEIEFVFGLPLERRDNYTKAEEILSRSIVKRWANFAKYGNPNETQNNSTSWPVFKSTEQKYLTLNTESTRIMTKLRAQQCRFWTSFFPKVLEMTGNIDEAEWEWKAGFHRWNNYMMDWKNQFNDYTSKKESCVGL

SMILES	IC50 (BChE enzyme) [µM]	inhibition at 1000 µM (BChE enzyme) [%]	inhibition at 100 µM (BChE enzyme) [%]	inhibition at 1000 µM (AChE enzyme) [%]	inhibition at 100 µM (AChE enzyme) [%]	IC50 (AChE enzyme) [µM]
CCn1c(-c2ccc(Cl)cc2Cl)csc1=NN=C(C)c1ccc(N2CCCCC2)cc1 [D3g, 4-(2,4-Dichlorophenyl)-3-ethyl-2-((1-(4-(piperidin-1 yl)phenyl)ethylidene)hydrazineylidene)-2,3-dihydrothiazole]	> 1000	33.5 ± 1.26	26.8 ± 1.06	26.7 ± 1.15	20.9 ± 0.884	> 1000
CCn1c(-c2ccc(F)cc2)csc1=NN=C(C)c1ccc(N2CCCCC2)cc1 [D3b, 3-Ethyl-4-(4-fluorophenyl)-2-((1-(4-(piperidin-1-yl)phenyl)ethylidene)hydrazineylidene)-2,3-dihydrothiazole]	> 1000	32.6 ± 1.46	22.6 ± 0.964	40.2 ± 1.85	35.8 ± 1.25	> 1000
CCn1c(-c2ccc(OC)cc2)csc1=NN=C(C)c1ccc(N2CCCCC2)cc1 [D3e, 3-Ethyl-4-(4-methoxyphenyl)-2-((1-(4-(piperidin-1-yl)phenyl)ethylidene)hydrazineylidene)-2,3-dihydrothiazole]	> 1000	36.3 ± 1.42	30.3 ± 0.956	34.1 ± 1.57	21.6 ± 0.926	> 1000
CC(=NN=c1scc(-c2ccc(Cl)cc2Cl)n1C)c1ccc(N2CCCCC2)cc1 [D1g, 4-(2,4-Dichlorophenyl)-3-methyl-2-((1-(4-(piperidin-1-yl)phenyl)ethylidene)hydrazineylidene)-2,3-dihydrothiazole]	> 1000	36.3 ± 1.56	31.1 ± 1.07	63.5 ± 1.96	16.9 ± 0.778	> 100
C=CCn1c(-c2ccc(OC)cc2)csc1=NN=C(C)c1ccc(N2CCCCC2)cc1 [D2e, 3-Allyl-4-(4-methoxyphenyl)-2-((1-(4-(piperidin-1-yl)phenyl)ethylidene)hydrazineylidene)-2,3-dihydrothiazole]	> 1000	25.7 ± 0.963	17.2 ± 0.634	39.6 ± 1.76	25.3 ± 1.06	> 1000
C=CCn1c(-c2ccc(Cl)cc2Cl)csc1=NN=C(C)c1ccc(N2CCCCC2)cc1 [D2g, 3-Allyl-4-(2,4-dichlorophenyl)-2-((1-(4-(piperidin-1-yl)phenyl)ethylidene)hydrazineylidene)-2,3-dihydrothiazole]	> 1000	29.3 ± 1.35	24 ± 1.07	39.7 ± 1.88	31.6 ± 1.47	> 1000
CCn1c(-c2ccc(C#N)cc2)csc1=NN=C(C)c1ccc(N2CCCCC2)cc1 [D3f, 4-(-3-Ethyl-2-((-1-(4-(piperidin-1-yl)phenyl)ethylidene)hydrazineylidene)-2,3-dihydrothiazol-4-yl)benzonitrile]	> 1000	30.2 ± 1.05	21.1 ± 0.947	57.4 ± 1.72	25.4 ± 0.856	> 100
C=CCn1c(-c2ccc([N+](=O)[O-])cc2)csc1=NN=C(C)c1ccc(N2CCCCC2)cc1 [D2c, 3-Allyl-4-(4-nitrophenyl)-2-((1-(4-(piperidin-1-yl)phenyl)ethylidene)hydrazineylidene)-2,3-dihydrothiazole]	> 1000	35 ± 1.14	30.7 ± 1.15	67 ± 1.85	31.4 ± 0.932	> 100
CCn1c(-c2ccc(C)cc2)csc1=NN=C(C)c1ccc(N2CCCCC2)cc1 [D3a, 3-Ethyl-2-((1-(4-(piperidin-1-yl)phenyl)ethylidene)hydrazineylidene)-4-(p-tolyl)-2,3-dihydrothiazole]	> 1000	45.4 ± 2.09	25.3 ± 1	56.2 ± 1.75	37.5 ± 0.921	> 100
C=CCn1c(-c2ccc(C)cc2C)csc1=N/N=C(\C)c1ccc(N2CCCCC2)cc1 [D2i, 3-Allyl-4-(2,4-dimethylphenyl)-2-(((E)-1-(4-(piperidin-1-yl)phenyl)ethylidene)hydrazineylidene)-2,3-dihydrothiazole]	> 1000	42.1 ± 2.02	28.7 ± 1.12	28.1 ± 1.25	20.5 ± 0.862	> 1000
CC(=NN=c1scc(-c2ccc(Cl)c(Cl)c2)n1C)c1ccc(N2CCCCC2)cc1 [D1h, 4-(3,4-Dichlorophenyl)-3-methyl-2-((1-(4-(piperidin-1-yl)phenyl)ethylidene)hydrazineylidene)-2,3-dihydrothiazole]	> 1000	31.5 ± 1.31	24.3 ± 0.925	27.6 ± 1.18	14.7 ± 0.646	> 1000
CC(=NN=c1scc(-c2ccc(F)cc2)n1C)c1ccc(N2CCCCC2)cc1 [D1b, 4-(4-Fluorophenyl)-3-methyl-2-((1-(4-(piperidin-1 yl)phenyl)ethylidene)hydrazineylidene)-2,3-dihydrothiazole]	> 1000	30.2 ± 0.936	19.6 ± 0.864	37.2 ± 1.54	31.1 ± 1.36	> 1000
CCn1c(-c2ccc([N+](=O)[O-])cc2)csc1=NN=C(C)c1ccc(N2CCCCC2)cc1 [D3c, 3-Ethyl-4-(4-nitrophenyl)-2-((1-(4-(piperidin-1 yl)phenyl)ethylidene)hydrazineylidene)-2,3-dihydrothiazole]	> 1000	33.9 ± 1.54	27.3 ± 1.16	42.8 ± 2.04	38.2 ± 1.74	> 1000
C=CCn1c(-c2ccc(C)cc2)csc1=NN=C(C)c1ccc(N2CCCCC2)cc1 [D2a, 3-Allyl-2-((1-(4-(piperidin-1-yl)phenyl)ethylidene)hydrazineylidene)-4-(p-tolyl)-2,3-dihydrothiazole]	> 1000	30.8 ± 1.07	20.9 ± 0.802	38.6 ± 1.35	30.1 ± 1.45	> 1000
CCn1c(-c2ccc(Cl)cc2)csc1=NN=C(C)c1ccc(N2CCCCC2)cc1 [D3d, 4-(4-Chlorophenyl)-3-ethyl-2-((1-(4-(piperidin-1-yl)phenyl)ethylidene)hydrazineylidene)-2,3-dihydrothiazole]	> 1000	37.5 ± 1.46	21.3 ± 1.07	32.3 ± 1.44	23.3 ± 1.05	> 1000
CC(=NN=c1scc(-c2ccc(C)cc2)n1C)c1ccc(N2CCCCC2)cc1 [D1a, 3-Methyl-2-((1-(4-(piperidin-1-yl)phenyl)ethylidene)hydrazineylidene)-4-(p-tolyl)-2,3-dihydrothiazole]	> 1000	32.5 ± 1.06	20.4 ± 0.984	40.5 ± 1.92	36.5 ± 1.72	> 1000
C=CCn1c(-c2ccc(Cl)cc2)csc1=NN=C(C)c1ccc(N2CCCCC2)cc1 [D2d, 3-Allyl-4-(4-chlorophenyl)-2-((1-(4-(piperidin-1 yl)phenyl)ethylidene)hydrazineylidene)-2,3-dihydrothiazole]	> 1000	30.5 ± 1.03	20 ± 0.926	31.2 ± 1.32	28 ± 0.884	> 1000
CCn1c(-c2ccc(C)cc2C)csc1=NN=C(C)c1ccc(N2CCCCC2)cc1 [D3i, 4-(2,4-Dimethylphenyl)-3-ethyl-2-((1-(4-(piperidin-1-yl)phenyl)ethylidene)hydrazineylidene)-2,3-dihydrothiazole]	> 1000	31.5 ± 1.04	24.1 ± 0.858	40.9 ± 1.59	22.1 ± 0.962	> 1000
CCn1c(-c2ccc(Cl)c(Cl)c2)csc1=NN=C(C)c1ccc(N2CCCCC2)cc1 [D3h, 4-(3,4-Dichlorophenyl)-3-ethyl-2-((1-(4-(piperidin-1 yl)phenyl)ethylidene)hydrazineylidene)-2,3-dihydrothiazole]	> 1000	38.7 ± 1.32	32.5 ± 1.13	28.4 ± 1.25	23.7 ± 0.969	> 1000
C=CCn1c(-c2ccc(C#N)cc2)csc1=NN=C(C)c1ccc(N2CCCCC2)cc1 [D2f, 4-(3-Allyl-2-((1-(4-(piperidin-1-yl)phenyl)ethylidene)hydrazineylidene)-2,3-dihydrothiazol-4-yl)benzonitrile]	> 1000	21.9 ± 0.855	16.5 ± 0.578	76 ± 2.28	29.8 ± 1.26	> 100
CC(=NN=c1scc(-c2ccc(C)cc2C)n1C)c1ccc(N2CCCCC2)cc1 [D1i, 4-(2,4-Dimethylphenyl)-3-methyl-2-((1-(4-(piperidin-1-yl)phenyl)ethylidene)hydrazineylidene)-2,3-dihydrothiazole]	> 1000	40.9 ± 1.86	29.5 ± 0.846	59.3 ± 1.29	13.7 ± 0.52	> 100
C=CCn1c(-c2ccc(Cl)c(Cl)c2)csc1=N/N=C(\C)c1ccc(N2CCCCC2)cc1 [D2h, 3-Allyl-4-(3,4-dichlorophenyl)-2-(((E)-1-(4-(piperidin-1-yl)phenyl)ethylidene)hydrazineylidene)-2,3-dihydrothiazole]	> 1000	36.2 ± 1.36	31.5 ± 0.963	31.5 ± 1.04	20.3 ± 0.989	> 1000
